Columns and labels:
CEM-SS [1] = experiment: Antiviral activity against HIV-1 in CEM-SS cells using […] assay; I = No antiviral activity; format: functional, cell-based, Homo sapiens
CEM-SS [2] = experiment: Antiviral activity against HIV-1 in CEM-SS cells using […] assay; format: functional, cell-based; conditions: Homo sapiens
[3] = tested on: Human immunodeficiency virus 1; experiment: Compound was tested for binding of HIV-1 to CEM-ss cells; NI = No inhibition; format: functional, organism-based
[4] = molecular target: Human immunodeficiency virus type 1 protease (Human immunodeficiency virus 1, UniProt Q72874); experiment: Compound was tested for effects on HIV-1 protease; NI = No inhibition
[5] = molecular target: Human immunodeficiency virus type 1 reverse transcriptase (Human immunodeficiency virus 1, UniProt Q72547); experiment: Compound was tested for the effect on HIV-1 Reverse Transcriptase; NI = No inhibition
CEM-SS [6] = experiment: Antiviral activity against HIV-1ADA in […]; I = No antiviral activity; format: functional, cell-based, Homo sapiens
CEM-SS [7] = experiment: Antiviral activity against HIV-1ADA in […]; format: functional, cell-based; conditions: Homo sapiens

**Q.** Which EC50 (CEM-SS [1]) does the source give for `C/C(=C(\CCO)SS/C(CCO)=C(/C)N(C=O)Cc1cnc(C)nc1N)N(C=O)Cc1cnc(C)nc1N` here?
**A.** Not Active

**Q.** What about the IC50 (CEM-SS [2]) of the same molecule?
**A.** 535 µM

**Q.** And the I50 [3]?
**A.** Not Active

**Q.** And the I50 [4]?
**A.** Not Active

**Q.** And the I50 [5]?
**A.** Not Active

**Q.** What about the EC50 (CEM-SS [6]) of the same molecule?
**A.** Not Active

**Q.** And the IC50 (CEM-SS [7])?
**A.** > 100 µM

**Q.** How did the EC50 (CEM-SS [2]) turn out when `NCCSSCCN` [CYSTAMINE] was run?
**A.** 56.2 µM

**Q.** And the IC50 (CEM-SS [2])?
**A.** 172 µM

**Q.** And the I50 [3]?
**A.** Not Active

**Q.** What about the I50 [4] of the same molecule?
**A.** Not Active

**Q.** And the I50 [5]?
**A.** Not Active

**Q.** What about the EC50 (CEM-SS [7]) of the same molecule?
**A.** 4.3 µM

**Q.** What about the IC50 (CEM-SS [7]) of the same molecule?
**A.** > 100 µM

**Q.** What does the source list for `NCCS` [CYSTEAMINE]?
**A.** EC50 (CEM-SS [2]): 41.6 µM; IC50 (CEM-SS [2]): 71 µM; I50 [3]: Not Active; I50 [4]: Not Active; I50 [5]: Not Active; EC50 (CEM-SS [7]): 53.7 µM; IC50 (CEM-SS [7]): > 100 µM

**Q.** With `CCN(CC)C(=S)SSC(=S)N(CC)CC` [DISULFIRAM] as the molecule, how does the EC50 (CEM-SS [1]) read?
**A.** Not Active

**Q.** What about the IC50 (CEM-SS [2]) of the same molecule?
**A.** 3.9 µM

**Q.** What about the I50 [3] of the same molecule?
**A.** Not Active

**Q.** What about the I50 [4] of the same molecule?
**A.** Not Active

**Q.** And the I50 [5]?
**A.** Not Active

**Q.** What about the EC50 (CEM-SS [6]) of the same molecule?
**A.** Not Active

**Q.** What about the IC50 (CEM-SS [7]) of the same molecule?
**A.** > 100 µM

**Q.** How did the EC50 (CEM-SS [1]) turn out when `CCN(CC)C(=S)S` [DITIOCARB] was run?
**A.** Not Active

**Q.** And the IC50 (CEM-SS [2])?
**A.** > 100 µM

**Q.** What about the I50 [3] of the same molecule?
**A.** Not Active

**Q.** And the I50 [4]?
**A.** Not Active

**Q.** What about the I50 [5] of the same molecule?
**A.** Not Active

**Q.** And the EC50 (CEM-SS [6])?
**A.** Not Active

**Q.** What about the IC50 (CEM-SS [7]) of the same molecule?
**A.** > 100 µM
